Assay [1] has as its target T1, PDK1 50-359 [Y288G;Q292A] (Homo sapiens, UniProt O15530, Q292A/Y288G).
T1 sequence (O15530 with tags, fused parts or gaps Y288G/Q292A): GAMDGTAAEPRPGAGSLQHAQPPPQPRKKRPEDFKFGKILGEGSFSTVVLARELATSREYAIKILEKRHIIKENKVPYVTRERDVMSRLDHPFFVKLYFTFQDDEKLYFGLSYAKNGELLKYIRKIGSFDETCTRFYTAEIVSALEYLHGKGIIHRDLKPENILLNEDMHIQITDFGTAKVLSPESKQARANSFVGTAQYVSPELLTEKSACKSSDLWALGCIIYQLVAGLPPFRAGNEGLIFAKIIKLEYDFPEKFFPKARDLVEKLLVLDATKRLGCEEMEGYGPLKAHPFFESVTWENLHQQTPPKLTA
In words: Amide 1H/2H exchange and mass spectrometry.
Description: For local exchange analysis, the labeled proteins were digested with pepsin and the resulting polypeptides analyzed by tandem mass-spectrometry (LC-MS/MS) for their incorporation of deuterium atoms. The graphics represent the number of deuterium atoms incorporated into each polypeptide upon the stated incubation time in deuterated water. […] Over time, amide hydrogen atoms exchanged for deuteriums and the molecular weight of the protein increased. We repeated the ^1H/^2H exchange experiments at four different incubation times: 1, 5, 15 and 45 minutes. […] In the presence of peptide or small compounds, protein and ligand solution were pre-incubated on ice for 50 min before the mixture was diluted into labeling buffer. After the exchange reaction, samples were loaded on a pepsin column for one minute for digestion into peptides and samples quenched at each time point. They were then subjected to liquid chromatography for separation and analyzed by tandem mass-spectrometry (LC-MS/MS) for their incorporation of deuterium atoms. The entire plumbing system was immersed in an ice bath. 61 polypeptides were identified with overlapping regions, covering 80% of PDK1 sequence. As it is not possible to predict the cleavage sites of pepsin in the PDK1 sequence, it was necessary to identify the peptides generated by pepsin digestion for local-exchange analysis.

Assay [2] has as its target T2, His-PDK1 50-556 / biotin-PIFtide interaction (Homo sapiens, UniProt O15530).
T2 sequence (O15530 50-556): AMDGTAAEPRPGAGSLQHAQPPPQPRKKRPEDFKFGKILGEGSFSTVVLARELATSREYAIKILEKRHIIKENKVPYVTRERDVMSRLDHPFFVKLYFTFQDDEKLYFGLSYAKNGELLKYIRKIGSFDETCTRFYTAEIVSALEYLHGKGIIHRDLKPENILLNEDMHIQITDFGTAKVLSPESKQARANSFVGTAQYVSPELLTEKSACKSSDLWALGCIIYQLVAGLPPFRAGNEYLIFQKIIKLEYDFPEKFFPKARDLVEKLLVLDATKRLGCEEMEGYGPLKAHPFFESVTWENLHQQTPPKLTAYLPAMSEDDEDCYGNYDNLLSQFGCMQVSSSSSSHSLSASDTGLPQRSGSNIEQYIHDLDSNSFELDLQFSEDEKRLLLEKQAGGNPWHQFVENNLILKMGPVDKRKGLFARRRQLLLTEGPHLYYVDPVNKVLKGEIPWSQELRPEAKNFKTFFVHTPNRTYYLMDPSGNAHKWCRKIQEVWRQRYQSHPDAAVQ
In words: alpha-screen displacement of the His-PDK1 biotin-PIFtide interaction. Type of assay: binding. The protocol: To study if low molecular weight compounds displaced the interaction, the compounds were incubated with the mix and the displacement of the His-PDK1 biotin-PIFtide interaction measured as a decrease in light emission.

The target in the next assay is T3, PDK1 catalytic domain (Homo sapiens, UniProt O15530).
T3 construct: The catalytic domain (CD) of PDK1 50-359 and its mutants
T3 sequence (O15530 50-359): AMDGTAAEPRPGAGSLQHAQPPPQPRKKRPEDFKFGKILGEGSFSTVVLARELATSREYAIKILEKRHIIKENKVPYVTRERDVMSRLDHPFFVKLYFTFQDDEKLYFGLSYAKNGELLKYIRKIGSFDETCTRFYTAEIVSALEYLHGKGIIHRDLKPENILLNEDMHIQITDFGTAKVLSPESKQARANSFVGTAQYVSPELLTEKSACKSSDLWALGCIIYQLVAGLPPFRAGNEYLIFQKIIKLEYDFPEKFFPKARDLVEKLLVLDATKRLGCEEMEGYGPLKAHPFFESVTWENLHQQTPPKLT
Description: TNP-ATP fluorescence probing of the ATP binding site conformation. Type of assay: biochemical. An excerpt:
Probing the conformation of the ATP binding site in PDK1: The activation of PDK1 by HM-polypeptides and small compounds is due to a change in the conformation of the enzyme. We probed the conformation of the ATP binding site in PDK1 by scanning the steady-state fluorescence of TNP-ATP/PDK1, in the presence or absence of P-HM-polypeptides, PIFtide, or small molecular weight compounds. Data were obtained in a Varian Cary Eclipse spectrofluorometer (excitation λ=479 nm; emission scanning, λ=500-600 nm; excitation slit=10 nm; emission slit=10 nm) at a rate of 200 nm/min, with 150 datapoints/100 nm scanning and 0.3 s averaging time. The incubation was performed at 20° C. in a buffer containing 50 mM Tris pH 7.5, 0.1 mM EDTA, 187 mM NaCl, 40 μM TNP-ATP, 15 μM PDK1 catalytic domain, 1 mM DTT and 1% DMSO. In the absence of PDK1, TNP-ATP produced approximately 1.5 arbitrary units (a.u.) of fluorescence, and the inclusion of PDK1 increased its fluorescence intensity to approximately 3.3 a.u. […] In preliminary tests, inclusion of 2.5 mM MgCl2 in the assay mix produced similar results. Data for each condition are the average of 3 scans.

The target in the next assay is T4, PDK1 CD (50-359) wt (human, UniProt O15530 51-360).
T4 construct: also called PDK1 50-359; PDK1 CD wt
T4 sequence: T1 sequence (O15530 with tags, fused parts or gaps Y288G/Q292A) with A2P, G240Y, A244Q
Description: SPR competition (BiaCore): PDK1 CD wt pre-incubated with PIFtide, then injected over immobilised biotin-P-HM-S6K; PIFtide displaces PDK1 from biotin-P-HM-S6K.

In assay [3] the target is T5, PDK1 CD (50-359) [Thr226Trp] (human, UniProt O15530 50-359).
T5 construct: also called PDK1[Thr226Trp]; PDK1 Thr226Trp
T5 sequence: T3 sequence (O15530 50-359) with T177W
Description: SPR competition (BiaCore): PDK1 [Thr226Trp] pre-incubated with PIFtide, then injected over immobilised biotin-P-HM-S6K; PIFtide displaces PDK1 from biotin-P-HM-S6K.

Assay [4] addresses T6, PDK1 CD (50-359) [Phe224Trp] (human, UniProt O15530 50-359).
T6 construct: also called PDK1[Phe224Trp]; PDK1 Phe224Trp
T6 sequence: T3 sequence (O15530 50-359) with F175W
Description: SPR competition (BiaCore): PDK1 [Phe224Trp] pre-incubated with PIFtide, then injected over immobilised biotin-P-HM-S6K; PIFtide displaces PDK1 from biotin-P-HM-S6K.

Numbering of substitutions follows the chain as printed. Entries after “also recorded” stand apart in the source; their conditions may differ.

Turning to `O=C(O)/C=C(/CCc1ccc(Br)cc1F)c1ccccc1` [PS08], the “decreased 2H incorporation, peptide 108-121” value in assay [1] is reported as 1 ^2H. For the same molecule, the results for the “2H less incorporated, peptide 108-134” value in assay [1] (first time point) and in assay [1] (following time points) were 4 ^2H and 2 ^2H, respectively. Besides, in assay [1] (first time point), the “2H less incorporated, peptide 218-247” value was 1.5 ^2H. The “2H less incorporated, peptide 146-155” value in assay [1] (time points 15 and 45) is 1 ^2H. Moreover, in assay [2], the “displacement of the binding of PIFtide to PDK1” value was “could be displaced”. Further, at PDK1 catalytic domain (40 μM TNP-ATP, 15 μM PDK1 catalytic domain), the “effect on TNP-ATP fluorescence intensity in the presence of PDK1” value was “concentration dependent decrease; also recorded: concentration-dependent decrease”. The “maximum fluorescence intensity of TNP-ATP/PDK1” value at PDK1 catalytic domain (167 μM compound, % of maximal TNP-ATP fluorescence with 15 μM PDK1 CD) worked out at 60%.

Consider REPRILSEEEQEMFRDFDYIADWC (also called HM-polypeptide PIFtide) [PIFtide], for which the binding result (with PDK1 CD (50-359) wt; in assay [3]; in assay [4]) was “binds” throughout.

For the origin of these results see patent US20120003668A1, “HIGH RESOLUTION COMPLEX STRUCTURE AND ALLOSTERIC EFFECTS OF LOW MOLECULAR WEIGHT ACTIVATORS ON THE PROTEIN KINASE PDK1” (UNIVERSITAET DES SAARLANDES, priority 2008, published 2012).
